In patent US6358885B1, “Substituted phenylheterocyclic herbicides” (Mississippi State University, priority 1992, dated 2002):

Columns and labels:
[1] = test system: sorghum; assay: Test B preemergence/postemergence greenhouse plant response rating 0 to 10; assay type: in vivo, Sorghum bicolor; conditions: 0 to 10 scale
How it was run: (§1)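 Both application timings were run together: seeds got compound preemergence, and established seedlings (two to eighteen cm) got it postemergence. Non-phytotoxic solvent carried the chemical. Ratings are visual, versus controls, at twelve to sixteen days.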

[2] = test system: velvetleaf; assay: Test C preemergence/postemergence greenhouse plant response rating 0 to 100; assay type: in vivo, Abutilon theophrasti; conditions: POSTEMERGENCE; for Plant response rating, Velvetleaf: 0 to 100 scale
How it was run: (§2)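 Compounds in non-phytotoxic solvent applied preemergence to sandy loam one day after planting, postemergence at the 1–4 leaf stage, or to ~2.5 cm floodwater over silt loam.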

[3] = test system: sugar beet; assay: as above; assay type: in vivo, Beta vulgaris; conditions: POSTEMERGENCE; for Plant response rating, Sugar beet: 0 to 100 scale
How it was run: as §2

[4] = test system: wild oat; assay: Test B preemergence/postemergence greenhouse plant response rating 0 to 10; assay type: in vivo, Avena fatua; conditions: 0 to 10 scale
How it was run: as §1

[5] = test system: wild buckwheat; assay: as above; assay type: in vivo, Polygonum convolvulus; conditions: 0 to 10 scale
How it was run: as §1

[6] = test system: corn; assay: as above; assay type: in vivo, Zea mays; conditions: 0 to 10 scale
How it was run: as §1

[7] = test system: giant foxtail; assay: as above; assay type: in vivo, Setaria faberii; conditions: 0 to 10 scale
How it was run: as §1

[8] = test system: barley; assay: Test C preemergence/postemergence greenhouse plant response rating 0 to 100; assay type: in vivo, Hordeum vulgare; conditions: POSTEMERGENCE; for Plant response rating Barley Igri: 0 to 100 scale
How it was run: as §2

[9] = test system: duck salad; assay: Test C flood test plant response rating 0 to 100; assay type: in vivo, Heteranthera limosa; conditions: for Plant response rating (0 to 100), Duck salad: under POSTEMERGENCE head (flood test species); for Plant response rating Duck salad: flood test species listed under POSTEMERGENCE, 0 to 100 scale
How it was run: as §2

[10] = test system: ryegrass; assay: Test C preemergence/postemergence greenhouse plant response rating 0 to 100; assay type: in vivo, Lolium multiflorum; conditions: POSTEMERGENCE; for Plant response rating Ryegrass: 0 to 100 scale
How it was run: as §2

[11] = test system: lambsquarters; assay: as above; assay type: in vivo, Chenopodium album; conditions: POSTEMERGENCE; for Plant response rating Lambsquarters: 0 to 100 scale
How it was run: as §2

[12] = test system: downy brome; assay: as above; assay type: in vivo, Bromus tectorum; conditions: POSTEMERGENCE; for Plant response rating Downy Brome: 0 to 100 scale
How it was run: as §2

[13] = test system: cotton; assay: as above; assay type: in vivo, Gossypium hirsutum; conditions: POSTEMERGENCE; for Plant response rating, Cotton: 0 to 100 scale
How it was run: as §2

[14] = test system: chickweed; assay: Test B preemergence/postemergence greenhouse plant response rating 0 to 10; assay type: in vivo, Stellaria media; conditions: 0 to 10 scale
How it was run: as §1

[15] = test system: cheatgrass; assay: as above; assay type: in vivo, Bromus secalinus; conditions: 0 to 10 scale
How it was run: as §1

[16] = test system: soybean; assay: Test C preemergence/postemergence greenhouse plant response rating 0 to 100; assay type: in vivo, Glycine max; conditions: POSTEMERGENCE; for Plant response rating, Soybean: 0 to 100 scale
How it was run: as §2

[17] = test system: wild buckwheat; assay: as above; assay type: in vivo, Polygonum convolvulus; conditions: POSTEMERGENCE; for Plant response rating, Wild buckwheat: 0 to 100 scale
How it was run: as §2

[18] = test system: chickweed; assay: as above; assay type: in vivo, Stellaria media; conditions: POSTEMERGENCE; for Plant response rating, Chickweed: 0 to 100 scale
How it was run: as §2

In the case of `C=C(Cl)COc1cc(-c2nn3c(c2Cl)CCCC3)c(F)cc1Cl` [Compound 40], the “Plant response rating, Sorghum” value ([1]; POSTEMERGENCE, Rate 50 g/ha) is reported as 4, the “Plant response rating, Sorghum” value ([1]; PREEMERGENCE, Rate 50 g/ha) is reported as 0 and the “Plant response rating, Sorghum” value ([1]; Rate 200 g/ha, POSTEMERGENCE) is reported as 5. For the same compound, the “Plant response rating, Sorghum” value ([1]; Rate 200 g/ha, PREEMERGENCE) was 1, the “Plant response rating, Velvetleaf” value ([2]; 62 g/ha) was 100 and the “Plant response rating, Velvetleaf” value ([2]; 125 g/ha) was 100. For the same compound, the “Plant response rating (0 to 100), Velvetleaf” value ([2]; Rate 16 g/ha) was 90, the “Plant response rating (0 to 100), Velvetleaf” value ([2]; Rate 31 g/ha) was 90 and the “Plant response rating, Sugar beet” value ([3]; 62 g/ha) was 100. The “Plant response rating, Sugar beet” value ([3]; 125 g/ha) was 100, the “Plant response rating (0 to 100), Sugar beet” value ([3]; Rate 16 g/ha) was 100 and the “Plant response rating (0 to 100), Sugar beet” value ([3]; Rate 31 g/ha) was 100. The “Plant response rating, Wild oat” value ([4]; POSTEMERGENCE, Rate 50 g/ha) was 4, the “Plant response rating, Wild oat” value ([4]; PREEMERGENCE, Rate 50 g/ha) was 0 and the “Plant response rating, Wild oat” value ([4]; Rate 200 g/ha, POSTEMERGENCE) was 5. For the same compound, the “Plant response rating, Wild buckwheat” value ([5]; POSTEMERGENCE, Rate 50 g/ha) was 9, the “Plant response rating, Wild buckwheat” value ([5]; Rate 200 g/ha, POSTEMERGENCE) was 10 and the “Plant response rating, Wild buckwheat” value ([5]; Rate 200 g/ha, PREEMERGENCE) was 9. The “Plant response rating, Corn” value ([6]; POSTEMERGENCE, Rate 50 g/ha) was 4, the “Plant response rating, Corn” value ([6]; POSTEMERGENCE, Rate 200 g/ha) was 5 and the “Plant response rating, Corn” value ([6]; PREEMERGENCE, Rate 50 g/ha) was 0. For the same compound, the “Plant response rating, Corn” value ([6]; Rate 200 g/ha, PREEMERGENCE) was 1, the “Plant response rating, Giant foxtail” value ([7]; POSTEMERGENCE, Rate 50 g/ha) was 5 and the “Plant response rating, Giant foxtail” value ([7]; PREEMERGENCE, Rate 50 g/ha) was 9. For the same compound, the “Plant response rating, Giant foxtail” value ([7]; Rate 200 g/ha, POSTEMERGENCE) was 6, the “Plant response rating, Giant foxtail” value ([7]; Rate 200 g/ha, PREEMERGENCE) was 9 and the “Plant response rating Barley Igri” value ([8]; 62 g/ha) was 30. For the same compound, the “Plant response rating Barley Igri” value ([8]; 125 g/ha) was 40, the “Plant response rating (0 to 100), Barley Igri” value ([8]; Rate 16 g/ha) was 20 and the “Plant response rating (0 to 100), Barley Igri” value ([8]; Rate 31 g/ha) was 30. The “Plant response rating (0 to 100), Duck salad” value ([9]; Rate 16 g/ha) was 0, the “Plant response rating (0 to 100), Duck salad” value ([9]; Rate 31 g/ha) was 65 and the “Plant response rating Duck salad” value ([9]; 62 g/ha) was 80. For the same compound, the “Plant response rating Duck salad” value ([9]; 125 g/ha) was 85, the “Plant response rating Ryegrass” value ([10]; 62 g/ha) was 30 and the “Plant response rating Ryegrass” value ([10]; 125 g/ha) was 40. The “Plant response rating (0 to 100), Ryegrass” value ([10]; Rate 16 g/ha) was 10, the “Plant response rating (0 to 100), Ryegrass” value ([10]; Rate 31 g/ha) was 20 and the “Plant response rating Lambsquarters” value ([11]; 62 g/ha) was 80. For the same compound, the “Plant response rating Lambsquarters” value ([11]; 125 g/ha) was 100, the “Plant response rating (0 to 100), Lambsquarters” value ([11]; Rate 16 g/ha) was 70 and the “Plant response rating (0 to 100), Lambsquarters” value ([11]; Rate 31 g/ha) was 70. The “Plant response rating Downy Brome” value ([12]; 62 g/ha) was 50, the “Plant response rating Downy Brome” value ([12]; 125 g/ha) was 60 and the “Plant response rating (0 to 100), Downy Brome” value ([12]; Rate 16 g/ha) was 30. The “Plant response rating (0 to 100), Downy Brome” value ([12]; Rate 31 g/ha) was 40, the “Plant response rating, Cotton” value ([13]; 62 g/ha) was 100 and the “Plant response rating, Cotton” value ([13]; 125 g/ha) was 100. For the same compound, the “Plant response rating (0 to 100), Cotton” value ([13]; Rate 16 g/ha) was 100, the “Plant response rating (0 to 100), Cotton” value ([13]; Rate 31 g/ha) was 100 and the “Plant response rating, Chickweed” value ([14]; POSTEMERGENCE, Rate 50 g/ha) was 10. The “Plant response rating, Chickweed” value ([14]; POSTEMERGENCE, Rate 200 g/ha) was 10, the “Plant response rating, Chickweed” value ([14]; PREEMERGENCE, Rate 50 g/ha) was 0 and the “Plant response rating, Chickweed” value ([14]; Rate 200 g/ha, PREEMERGENCE) was 5. The “Plant response rating, Cheatgrass” value ([15]; POSTEMERGENCE, Rate 50 g/ha) was 4, the “Plant response rating, Cheatgrass” value ([15]; POSTEMERGENCE, Rate 200 g/ha) was 4 and the “Plant response rating, Cheatgrass” value ([15]; PREEMERGENCE, Rate 50 g/ha) was 0. For the same compound, the “Plant response rating, Cheatgrass” value ([15]; Rate 200 g/ha, PREEMERGENCE) was 4, the “Plant response rating, Soybean” value ([16]; 62 g/ha) was 50 and the “Plant response rating, Soybean” value ([16]; 125 g/ha) was 60. For the same compound, the “Plant response rating (0 to 100), Soybean” value ([16]; Rate 16 g/ha) was 40, the “Plant response rating (0 to 100), Soybean” value ([16]; Rate 31 g/ha) was 40 and the “Plant response rating, Wild buckwheat” value ([17]; 62 g/ha) was 100. For the same compound, the “Plant response rating, Wild buckwheat” value ([17]; 125 g/ha) was 100, the “Plant response rating (0 to 100), Wild buckwheat” value ([17]; Rate 16 g/ha) was 50 and the “Plant response rating (0 to 100), Wild buckwheat” value ([17]; Rate 31 g/ha) was 50. For the same compound, the “Plant response rating, Chickweed” value ([18]; 62 g/ha) was 60, the “Plant response rating, Chickweed” value ([18]; 125 g/ha) was 90 and the “Plant response rating (0 to 100), Chickweed” value ([18]; Rate 16 g/ha) was 30. For the same compound, the “Plant response rating (0 to 100), Chickweed” value ([18]; Rate 31 g/ha) was 30.
